Data on six molecules can be found in EP0931077B1, “SUBSTITUTED BENZOCYCLOHEPTAPYRIDINE USEFUL AS INHIBITORS OF FARNESYL-PROTEIN TRANSFERASE” (SCHERING CORPORATION, priority 1996, dated 1998).

As usually defined, the inhibition is how much of the control response was suppressed. Read a low inhibition as a weak effect. One may read the IC50 as the concentration at which inhibition is half-maximal. High values mean lower potency, low ones higher potency.

In the assay the target is farnesyl-protein transferase (Homo sapiens, UniProt P49354+P49356). Kind of assay: FPT inhibition (in vitro farnesyl protein transferase inhibition). The assay is classed as biochemical.

Regarding `O=C(NCc1cccnc1)C1CCCN1C1c2ncc(Br)cc2CCc2cc(Cl)cc(Br)c21` (single isomer, unassigned) [Example 2 Isomer A, 1-(3,10-dibromo-8-chloro-6,11-dihydro-5H-benzo[5,6]cyclohepta[1,2-b]pyridine-11-yl)-N-(3-pyridinylmethyl)-2-pyrrolidine carboxamide], 0.3 µM produced 15% inhibition (@ 0.3 µM).

Regarding `O=C(NCc1cccnc1)C1CCCN1C1c2ncc(Br)cc2CCc2cc(Cl)cc(Br)c21` (single isomer, unassigned) [Example 2 Isomer B, 1-(3,10-dibromo-8-chloro-6,11-dihydro-5H-benzo[5,6]cyclohepta[1,2-b]pyridine-11-yl)-N-(3-pyridinylmethyl)-2-pyrrolidine carboxamide], 0.0052 µM corresponded to half-maximal inhibition (IC50).

`O=C(NCc1cccnc1)[C@@H]1CCCN1C1c2ccc(Cl)cc2CCc2cc(Br)cnc21` (single isomer, unassigned) [Example 1 Isomer A, 1-(3-Brorno-8-chloro-6,11-dihydro-5H-benzo[5,6]cyclohepta[1,2-b]pyridine-11-yl)-N-(3-pyridinylmethyl)2-pyrrolidine carboxamide]: the IC50 stood at 0.059 µM.

For `O=C(NCc1cccnc1)C1CCN1C1c2ccc(Cl)cc2CCc2cc(Br)cnc21` (single isomer, unassigned) [Example 3 Isomer A, 1-(3-bromo-8-chloro-6,11-dihydro-5H-benzo[5,6]cyclohepta[1,2-b]pyridine-11-yl)-N-(3-pyridinylmethyl)2-azetidine carboxamide], the IC50 came to 1.05 µM.

In the case of `O=C(NCc1cccnc1)C1CCN1C1c2ccc(Cl)cc2CCc2cc(Br)cnc21` (single isomer, unassigned) [Example 3 Isomer B, 1-(3-bromo-8-chloro-6,11-dihydro-5H-benzo[5,6]cyclohepta[1,2-b]pyridine-11-yl)-N-(3-pyridinylmethyl)2-azetidine carboxamide], for the setting “@0.1 µM”, testing at 0.1 µM gave an inhibition of 17%.

`O=C(NCc1cccnc1)[C@@H]1CCCN1C1c2ccc(Cl)cc2CCc2cc(Br)cnc21` (single isomer, unassigned) [Example 1 Isomer B, 1-(3-Brorno-8-chloro-6,11-dihydro-5H-benzo[5,6]cyclohepta[1,2-b]pyridine-11-yl)-N-(3-pyridinylmethyl)2-pyrrolidine carboxamide] yielded an IC50 of 0.14 µM.
